Results taken from publication PMC7824033, “Flavones, Flavonols, and Glycosylated Derivatives—Impact on Candida albicans Growth and Virulence, Expression of CDR1 and ERG11, Cytotoxicity” (Pharmaceuticals, 2020).
Converted amounts (≈) assume the structure as drawn. Where two headings read alike, the source gives them in different places.

How the values were obtained:
[1] = tested on: C. albicans 475/15 hyphal growth; test: Anti-hyphal forming activity; format: cell-based, Candida albicans; conditions: MIC, 4 h, YPD + 10% FBS
Procedure: C. albicans 475/15 cells were incubated with MIC of tested compounds in YPD + 10% FBS, at 37 °C, for 4 h. Cells were examined under microscope (Nikon Eclipse TS2, Amsterdam, Netherland) and number of cells, growing in the yeast or hyphal and germ tube formations, was determined. Assay was performed in triplicate and percentage of hyphae was determined.

in vitro = conditions: pig
Procedure: Preparation of PLP2 cell line was performed with freshly harvested porcine liver supplied from a local slaughter house. Tissues from the liver were washed in Hank’s balanced salt solution comprising 100 U/mL penicillin and 100 μg/mL streptomycin and split into 1 × 1 mm^3 explants. Some of the prepared explants were set in 25 cm^2 tissue flasks in Dulbecco’s modified Eagle’s medium (DMEM) with 10% fetal bovine serum (FBS), 2 mM nonessential amino acids, 100 U/mL penicillin, and […] streptomycin, and incubation was conducted at 37 °C with 5% CO2 in a humidified atmosphere. The fresh medium was added every 2 days. Cultivation of the cells was further conducted with direct observation by the phase contrast microscope every 2–3 days. Before confluence was achieved, cells were subcultured and seeded in 96-well plates at a density of 1.0 × 10^4 cells per well and cultivated in DMEM supplemented with 10% FBS, 100 U/mL penicillin, and 100 μg/mL streptomycin. Previously described Sulforhodamine B assay was used for the determination of cytotoxicity. The obtained results were defined as GI50 values corresponding to the compound concentration that inhibits 50% of the net cell growth. Ellipticine was used as a positive control.

Candida albicans = test: Microdilution assay, MIC (strain not named); format: cell-based; conditions: C. albicans, this study, strain not given, read-out: minimum inhibitory concentration (MIC)
From the text: (§1) C. albicans was isolated from oral cavities of patients at ENT Clinic, Clinical Hospital Centre Zvezdara, Belgrade, Serbia after obtaining informed written consent and identified by using CHROMagar plates (Biomerieux, Craponne, France). Strains were maintained on Sabouraud Dextrose Agar (Merck, Darmstadt, Germany) and are deposited at the Mycological Laboratory, Department of Plant Physiology, Institute for Biological Research “Siniša Stanković”, National Institute of Republic of Serbia, University of Belgrade. The collection of samples was approved by the Ethical Committee (Office for Human Research Protection, Zvezdara University Medical Center, Belgrade, Serbia, document issued 26 October 2016).
(§2) Microdilution assay with some modification was used for determination of minimum inhibitory (MIC) and minimum fungicidal concentrations (MFC). Yeast cultures were adjusted to 1.0 × 10^5 CFU/per well with sterile PBS (Phosphate buffered saline, pH 7.4). The 96-well microtiter plates with serially diluted flavonoids (concentration range 0.3–75 µg/mL) in liquid broth were incubated at 37 °C for 24 h. After incubation, MIC and MFC were determined. The lowest concentrations that were not inducing microscopically observed growth were considered as MIC. For microscopic determination of growth, we used inverted microscope Nikon Eclipse TS2 (Amsterdam, Netherland) and examined the fungal growth in the wells of 96-well microtiter plates compared to the control (untreated yeast cells). MFC values were determined as concentrations without visible growth after serial sub-cultivation of 10 µL of samples at 37 °C for 24 h. Ketoconazole and amphotericin B (SigmaAldrich, Darmstadt, Germany) were used as an antifungal control. The tested flavonoids were obtained from Extrasynthese, Rhone, France.

C. albicans = conditions: cited from earlier work
C. albicans biofilm = conditions: cited from earlier work
C. albicans 475/15 = test: Microdilution assay, MIC and MFC; format: cell-based; conditions: Candida albicans, C. albicans 475/15, mean ± SD of three replicates; for MFC: read-out: MFC; for MIC: read-out: MIC
From the text: as §1, §2

C. albicans 13/15 = test: Microdilution assay, MIC and MFC; format: cell-based; conditions: Candida albicans, C. albicans 13/15, mean ± SD of three replicates; for MFC: read-out: MFC; for MIC: read-out: MIC
From the text: as §1, §2

C. albicans 527/14 = test: Microdilution assay, MIC and MFC; format: cell-based; conditions: Candida albicans, C. albicans 527/14, mean ± SD of three replicates; for MFC: read-out: MFC; for MIC: read-out: MIC
From the text: as §1, §2

C. albicans 10/15 = test: Microdilution assay, MIC and MFC; format: cell-based; conditions: Candida albicans, C. albicans 10/15, mean ± SD of three replicates; for MFC: read-out: MFC; for MIC: read-out: MIC
From the text: as §1, §2

Compound | reduction of hyphal growth (words) [1] | GI50 (in vitro) [µg/mL] | MIC (Candida albicans) [µg/mL] | MFC (C. albicans 475/15) [µg/mL] | MIC (C. albicans 475/15) [µg/mL] | MFC (C. albicans 13/15) [µg/mL] | MIC (C. albicans 13/15) [µg/mL] | MFC (C. albicans 527/14) [µg/mL] | MIC (C. albicans 527/14) [µg/mL] | MFC (C. albicans 10/15) [µg/mL] | MIC (C. albicans 10/15) [µg/mL] | other results
O=c1c(O[C@@H]2O[C@H](CO)[C@@H](O)[C@H](O)[C@H]2O)c(-c2ccc(O)c(O)c2)oc2cc(O)cc(O)c12 [Isoquercitrin, isoquercitrin] | efficient in reduction of hyphal growth | > 400 | 37.5 (≈ 80.8 µM) | 75 ± 2 (≈ 162 µM) | 37.5 ± 1 (≈ 80.8 µM) | 75 ± 2 (≈ 162 µM) | 37.5 ± 2 (≈ 80.8 µM) | 75 ± 2 (≈ 162 µM) | 37.5 ± 1 (≈ 80.8 µM) | 75 ± 2 (≈ 162 µM) | 37.5 ± 2 (≈ 80.8 µM) | reduction of hyphal growth (words) ([1]; listed as isoquercitrin): reduced; MIC (C. albicans; C. albicans ATCC 90028): 2.5 µg/mL (≈ 5.38 µM); concentration with antibiofilm potential (C. albicans biofilm; ref 19): 200 µg/mL
O=c1c(O)c(-c2ccc(O)c(O)c2)oc2cc(O)cc(O)c12 [Quercetin, quercetin] | only slight inhibition | > 400 | 75 (≈ 248 µM) | 150 ± 10 (≈ 496 µM) | 75 ± 2 (≈ 248 µM) | 150 ± 20 (≈ 496 µM) | 75 ± 10 (≈ 248 µM) | 150 ± 10 (≈ 496 µM) | 75 ± 2 (≈ 248 µM) | 150 ± 20 (≈ 496 µM) | 75 ± 3 (≈ 248 µM) | MIC (C. albicans; C. albicans ATCC 10231, ref 16): 8 µg/mL (≈ 26.5 µM); MIC (C. albicans; C. albicans ATCC 10231, ref 17): 100 µg/mL (≈ 331 µM); MIC (C. albicans; clinical isolates and C. albicans 10231): > 83 µg/mL; MIC (C. albicans; clinical isolates and reference strains ATCC 10231 and SC5314): 128 to 512 µg/mL; activity against preformed 24-h-old biofilms (C. albicans biofilm; 625 µg/mL, C. albicans ATCC 90028): inactive; SMIC (sessile cells MIC) (C. albicans biofilm; C. albicans ATCC 10231, SC 5314 and clinical isolates): ≥ 1024 µg/mL; concentration that prevented biofilm establishment (C. albicans biofilm; C. albicans NBC099): 200 µg/mL; SMIC (sessile cells MIC) (C. albicans biofilm; oral and reference isolates SC5314 and 3153A): > 200 µg/mL
